Experimental data as given in patent US20260091043A1, “COMPOSITIONS AND METHODS FOR TREATING MYCOBACTERIUM INFECTIONS” (DATA2DISCOVERY, INC., priority 2022, published 2026).
Where two headings read alike, the source gives them in different places.

What was measured:
[1] = system: M. abscessus (ATCC Smooth strain); assay: M. abscessus (ATCC Smooth strain) resazurin growth inhibition assay; type: cell-based, Mycobacterium abscessus; details: for IC50 / IC90: Mycobacteroides abscessus; for activity against M. abscessus (in words): summary of table results
[2] = system: M. tuberculosis (H37RV strain); assay: M. tuberculosis (H37RV strain) resazurin growth inhibition assay; type: cell-based, Mycobacterium tuberculosis; details: for IC50 / IC90: Mycobacterium tuberculosis; for activity against M. tuberculosis (in words): summary of table results
[3] = M. abscessus ATCC Smooth, 96 well plate, 37° C. 4 days, resazurin, read after 1 day, read-out: IC50
[4] = M. abscessus ATCC Smooth, 96 well plate, 37° C. 4 days, resazurin, read after 1 day, read-out: IC90
[5] = M. tuberculosis H37RV, 96 well plate, 37° C. 4 days, resazurin, read 3 days later, read-out: IC50
[6] = M. tuberculosis H37RV, 96 well plate, 37° C. 4 days, resazurin, read 3 days later, read-out: IC90

In the case of `NCC[C@H](O)C(=O)N[C@@H]1C[C@H](N)[C@@H](O[C@H]2O[C@H](CN)[C@@H](O)[C@H](O)[C@H]2O)[C@H](O)[C@H]1O[C@H]1O[C@H](CO)[C@@H](O)[C@H](N)[C@H]1O` [Amikacin], the IC50 [1, 3] is reported as 4.78 µM and the IC90 [1, 4] is reported as 7.15 µM.
`NC[C@H]1O[C@H](O[C@H]2[C@H](O)[C@@H](O[C@H]3O[C@H](CO)[C@@H](O)[C@H](N)[C@H]3O)[C@H](N)C[C@@H]2N)[C@H](O)[C@@H](O)[C@@H]1O` [Kanamycin] was tested, and the IC50 [2, 5] was 1.06 µM, the IC90 [2, 6] was 4.22 µM and the IC50 [1, 3] was 12.1 µM. For the same compound, the IC90 [1, 4] was 16.1 µM.
With `O=C(Nc1ccc([N+](=O)[O-])cc1Cl)c1cc(Cl)ccc1O` [Niclosamide, niclosamide] the IC50 [2, 5] was 1.92 µM, the IC90 [2, 6] was 2.95 µM and the “activity against M. tuberculosis compared to kanamycin (in words)” value ([2]; comparison with control kanamycin) was “superior overall to kanamycin”. The “activity against M. tuberculosis (in words)” value [2] was “significant activity”, the IC50 [1, 3] was 32.2 µM and the IC90 [1, 4] was 59.1 µM. For the same compound, the “activity against M. abscessus (in words)” value [1] was “significant activity”.
`O=C(Nc1ccc(Br)cc1)c1cc(Br)cc(Br)c1O` [Tribromsalan, 3,5,4′-tribromosalicylanilide] was tested, and the IC50 ([2]; H37RV) was 67.2 µM, the IC90 ([2]; H37RV) was 76.9 µM and the “activity against M. tuberculosis (in words)” value [2] was “significant activity”. The IC50 [1] was 99.8 µM, the IC90 [1] was 147 µM and the “activity against M. abscessus (in words)” value [1] was “significant activity”.
